Test results reported in the NIST ThermoML archive (doi:10.1021/je100734t).
Where “and” joins values, the source holds several entries; their conditions need not be identical. Identical values can stand only once. ± gives the expanded uncertainty stated by the source.

Tests used:
[1] = 101 kPa, Liquid; for speed of sound: Pulse-echo method
[2] = xn = mol fraction of the nth substance listed; conditions: 101 kPa, Liquid; for speed of sound: Pulse-echo method

Row | SMILES | mass density ([1]; 293.15 K) | speed of sound ([1]; 293.15 K) | mass density ([1]; 303.15 K) | speed of sound ([1]; 303.15 K) | mass density ([1]; 313.15 K) | speed of sound ([1]; 313.15 K) | speed of sound ([2]; 293.15 K, x1 = 1) | mass density ([2]; 293.15 K, x1 = 1) | speed of sound ([2]; 303.15 K, x1 = 1) | mass density ([2]; 303.15 K, x1 = 1) | speed of sound ([2]; 313.15 K, x1 = 1) | mass density ([2]; 313.15 K, x1 = 1) | further results
1 | Cc1ccccc1C [1,2-dimethylbenzene] | 879.49 ± 0.35 kg/m3 | 1369 ± 2 m/s | 871.14 ± 0.36 kg/m3 | 1328 ± 2 m/s | 862.59 ± 0.38 kg/m3 | 1289 ± 2 m/s |  |  |  |  |  |  | 
2 | Cc1ccccc1C [1,2-dimethylbenzene] + CCCCCCCCCCO |  |  |  |  |  |  | 1369 ± 2 m/s | 879.49 ± 0.35 kg/m3 | 1328 ± 2 m/s | 871.14 ± 0.36 kg/m3 | 1289 ± 2 m/s | 862.59 ± 0.38 kg/m3 | 
3 | Cc1ccccc1C [1,2-dimethylbenzene] + CCCCCCCCCO |  |  |  |  |  |  | 1369 ± 2 m/s | 879.49 ± 0.35 kg/m3 | 1328 ± 2 m/s | 871.14 ± 0.36 kg/m3 | 1289 ± 2 m/s | 862.59 ± 0.38 kg/m3 | 
4 | Cc1cccc(C)c1 [1,3-dimethylbenzene] | 864.18 ± 0.49 kg/m3 | 1341 ± 2 m/s and 1340 ± 2 m/s | 855.56 ± 0.5 kg/m3 | 1300 ± 2 m/s | 846.9 ± 0.51 kg/m3 | 1259 ± 2 m/s |  |  |  |  |  |  | 
5 | Cc1cccc(C)c1 [1,3-dimethylbenzene] + CCCCCCCCCO |  |  |  |  |  |  | 1341 ± 2 m/s | 864.18 ± 0.49 kg/m3 | 1300 ± 2 m/s | 855.56 ± 0.5 kg/m3 | 1259 ± 2 m/s | 846.9 ± 0.51 kg/m3 | 
6 | Cc1ccc(C)cc1 [1,4-dimethylbenzene] | 860.96 ± 0.49 kg/m3 | 1330 ± 2 m/s | 852.25 ± 0.5 kg/m3 | 1289 ± 2 m/s | 843.51 ± 0.51 kg/m3 | 1249 ± 2 m/s |  |  |  |  |  |  | 
7 | Cc1ccc(C)cc1 [1,4-dimethylbenzene] + CCCCCCCCCCO |  |  |  |  |  |  | 1330 ± 2 m/s | 860.96 ± 0.49 kg/m3 | 1289 ± 2 m/s | 852.25 ± 0.5 kg/m3 | 1249 ± 2 m/s | 843.51 ± 0.51 kg/m3 | 
8 | Cc1ccc(C)cc1 [1,4-dimethylbenzene] + CCCCCCCCCO |  |  |  |  |  |  | 1330 ± 2 m/s | 860.96 ± 0.49 kg/m3 | 1289 ± 2 m/s | 852.25 ± 0.5 kg/m3 | 1249 ± 2 m/s | 843.51 ± 0.51 kg/m3 | 
9 | CCCCCCCCCCO [decan-1-ol] | 829.98 ± 0.42 kg/m3 | 1396 ± 2 m/s | 823.1 ± 0.44 kg/m3 | 1362 ± 2 m/s | 816.27 ± 0.45 kg/m3 | 1329 ± 2 m/s |  |  |  |  |  |  | 
10 | CCCCCCCCCCO [decan-1-ol] + Cc1cccc(C)c1 |  |  |  |  |  |  |  |  |  |  |  |  | speed of sound ([2]; 293.15 K, x2 = 0): 1396 ± 2 m/s; mass density ([2]; 293.15 K, x2 = 0): 829.98 ± 0.42 kg/m3; speed of sound ([2]; 303.15 K, x2 = 0): 1362 ± 2 m/s; mass density ([2]; 303.15 K, x2 = 0): 823.1 ± 0.44 kg/m3; speed of sound ([2]; 313.15 K, x2 = 0): 1329 ± 2 m/s; mass density ([2]; 313.15 K, x2 = 0): 816.27 ± 0.45 kg/m3
11 | CCc1ccccc1 [ethylbenzene] | 867.14 ± 0.35 kg/m3 | 1340 ± 2 m/s | 858.37 ± 0.36 kg/m3 | 1298 ± 2 m/s | 849.55 ± 0.37 kg/m3 | 1257 ± 2 m/s |  |  |  |  |  |  | 
12 | CCc1ccccc1 [ethylbenzene] + CCCCCCCCCCO |  |  |  |  |  |  | 1340 ± 2 m/s | 867.14 ± 0.35 kg/m3 | 1298 ± 2 m/s | 858.37 ± 0.36 kg/m3 | 1257 ± 2 m/s | 849.55 ± 0.36 kg/m3 | 
13 | CCc1ccccc1 [ethylbenzene] + CCCCCCCCCO |  |  |  |  |  |  | 1340 ± 2 m/s | 867.14 ± 0.35 kg/m3 | 1298 ± 2 m/s | 858.37 ± 0.36 kg/m3 | 1257 ± 2 m/s | 849.55 ± 0.37 kg/m3 | 
14 | CCCCCCCCCO [nonan-1-ol] | 827.7 ± 0.43 kg/m3 | 1381 ± 2 m/s | 820.82 ± 0.44 kg/m3 | 1347 ± 2 m/s | 813.88 ± 0.45 kg/m3 | 1314 ± 2 m/s |  |  |  |  |  |  | 
